Data published in patent US20230348418A1, “ISOINDOLINONE COMPOUNDS” (Monte Rosa Therapeutics, Inc., priority 2021, published 2023).
Read-outs that look alike come from different tables or passages of the source.

Biological target: T1, Full length wild-type cereblon CRBN (Homo sapiens, UniProt Q96SW2)
T1 construct: Full length wild-type cereblon CRBN (80.0 nM, 10 μL) was incubated in assay buffer
Assay: Fluorescence polarization (FP) assay, cereblon binding
Text: Compound activity was monitored in a fluorescence polarization (FP) homogeneous assay using 1-[5-({2-[2-(2-{[2-(2,6-dioxopiperidin-3-yl)-1,3-dioxo-2,3-dihydro-1H-isoindol-4-yl]oxy}acetamido)ethoxy]ethyl}carbamoyl)pentyl]-3,3-dimethyl-2-[(1E,3E)-5-[(2E)-1,3,3-trimethyl-5-sulfo-2,3-dihydro-1H-indol-2-ylidene]penta-1,3-dien-1-yl]-3H-indol-1-ium-5-sulfonate as a fluorescent probe. Unless otherwise stated, all reagents were purchased from Sigma Aldrich. […] Full length wild-type cereblon CRBN (80.0 nM, 10 μL) was incubated in assay buffer containing 20 mM HEPES (pH 8.0), […], 0.5 mM TCEP and 0.05% Tween 20 in the presence or absence of compound (300 nL). Inhibitors were stored as 10 mM DMSO stocks in an inert environment (low humidity, dark, low oxygen, room temperature) using the Storage Pod System. […] Following incubation at room temperature for 30 min, the assay was initiated by dispensing the probe to a final concentration of […] (2.5 nL of a 20 μM stock) using the Echo E5XX. […] The FP signal was subsequently normalized to the no-compound control (i.e., DMSO). Analysis and IC50 values were derived using Dotmatics (Dotmatics UK) software.

[1] = bounds stated in the text lists b2059-b2061, read-out: IC50 value
[2] = cereblon binding, class code, read-out: rFP IC50
[3] = IC50 value, bounds stated in the text lists b2059-b2061
[4] = rFP IC50 [nM], cereblon binding, class code

T1 sequence (Q96SW2 whole entry): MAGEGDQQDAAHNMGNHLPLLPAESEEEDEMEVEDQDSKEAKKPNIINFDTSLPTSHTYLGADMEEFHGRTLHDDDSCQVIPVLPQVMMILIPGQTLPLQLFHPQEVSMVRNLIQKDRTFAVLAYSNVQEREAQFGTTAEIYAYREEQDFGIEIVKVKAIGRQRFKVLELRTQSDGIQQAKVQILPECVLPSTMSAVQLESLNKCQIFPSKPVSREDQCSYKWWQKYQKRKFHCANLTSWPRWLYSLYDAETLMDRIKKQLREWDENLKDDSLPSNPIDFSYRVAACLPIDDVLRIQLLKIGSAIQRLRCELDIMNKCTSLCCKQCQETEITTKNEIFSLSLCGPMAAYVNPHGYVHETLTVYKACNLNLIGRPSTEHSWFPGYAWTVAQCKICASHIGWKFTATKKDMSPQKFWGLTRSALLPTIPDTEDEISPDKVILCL

Compound	IC50 [1] [nM]	IC50 [2] [nM]	other results
Cc1c(CN2CCOCC2)cc(NC(=O)OCc2ccc3c(c2)C(=O)N(C2CCC(=O)NC2=O)C3)cc1OC(F)F (stereo not shown) [Compound 25]	< 1700	500 to 1100	
O=C1CCC(N2Cc3ccc(COC(=O)Nc4ccc(N5CCCC5)nc4)cc3C2=O)C(=O)N1 (stereo not shown) [Compound 60]	< 1100		
O=C1CCC(N2Cc3ccc(COC(=O)N4CCC(Oc5ccccc5)C4)cc3C2=O)C(=O)N1 (stereo not shown) [Compound 30]	< 1100		
CCc1cc(NC(=O)OCc2ccc3c(c2)C(=O)N(C2CCC(=O)NC2=O)C3)ccn1 (stereo not shown) [Compound 63]	< 1100		
Cc1ccc(NC(=O)OCc2ccc3c(c2)C(=O)N(C2CCC(=O)NC2=O)C3)cc1C (stereo not shown) [Compound 129]			IC50 [3]: < 1100 nM
O=C1CCC(N2Cc3ccc(COC(=O)Nc4ccc5c(c4)OCC5)cc3C2=O)C(=O)N1 (stereo not shown) [Compound 18]	< 1700	500 to 1100	
CCOc1cc(NC(=O)OCc2ccc3c(c2)C(=O)N(C2CCC(=O)NC2=O)C3)ccc1C (stereo not shown) [Compound 33]	< 500	500 to 1100	
Cc1cc(NC(=O)OCc2ccc3c(c2)C(=O)N(C2CCC(=O)NC2=O)C3)cc(F)c1C (stereo not shown) [Compound 117]			IC50 [3]: < 1100 nM; IC50 [4]: 500 to 1100 nM
O=C1CCC(N2Cc3ccc(COC(=O)Nc4ccnc(-c5ccccc5)c4)cc3C2=O)C(=O)N1 (stereo not shown) [Compound 149]			IC50 [3]: < 1100 nM
O=C1CCC(N2Cc3ccc(COC(=O)Nc4cc(OC(F)(F)F)ccc4F)cc3C2=O)C(=O)N1 (stereo not shown) [Compound 145, (2-(2,6-dioxopiperidin-3-yl)-3-oxoisoindolin-5-yl)methyl(2-fluoro-5-(trifluoromethoxy)phenyl)carbamate]			IC50 (IC50 value): < 1100 nM; IC50 (rFP IC50 [nM]): 500 to 1100 nM
O=C1CCC(N2Cc3ccc(COC(=O)Nc4cnc5c(c4)CCC5)cc3C2=O)C(=O)N1 (stereo not shown) [Compound 53]	< 1700	500 to 1100	
CC(C)(C)c1cc(NC(=O)OCc2ccc3c(c2)C(=O)N(C2CCC(=O)NC2=O)C3)ccn1 (stereo not shown) [Compound 114]			IC50 [3]: < 1100 nM
O=C1CCC(N2Cc3ccc(COC(=O)Nc4cc(C(F)(F)F)ns4)cc3C2=O)C(=O)N1 (stereo not shown) [Compound 139]			IC50 [3]: < 1100 nM; IC50 [4]: 500 to 1100 nM
O=C1CCC(N2Cc3ccc(COC(=O)Nc4cc(Cl)cc(OCC5CCNC5)c4)cc3C2=O)C(=O)N1 (stereo not shown) [Compound 16]	< 1100		
Cc1c(Cl)cc(NC(=O)OCc2ccc3c(c2)C(=O)N(C2CCC(=O)NC2=O)C3)cc1CN1CC2CC1CO2 (stereo not shown) [Compound 13]	< 1700	500 to 1100	
O=C1CCC(N2Cc3ccc(COC(=O)Nc4cnc5c(c4)COCC5)cc3C2=O)C(=O)N1 (stereo not shown) [Compound 54]	< 1100		
Cc1c(Cl)cc(NC(=O)OCc2ccc3c(c2)C(=O)N(C2CCC(=O)NC2=O)C3)cc1OCC1CCNC1 (stereo not shown) [Compound 52]	< 1700	500 to 1100	
Cc1cc(Cl)c(NC(=O)OCc2ccc3c(c2)C(=O)N(C2CCC(=O)NC2=O)C3)cc1Cl (stereo not shown) [Compound 119]			IC50 [3]: < 1100 nM; IC50 [4]: 500 to 1100 nM
CN1CCC(Oc2cc(Cl)cc(NC(=O)OCc3ccc4c(c3)C(=O)N(C3CCC(=O)NC3=O)C4)c2)C1 (stereo not shown) [Compound 46]	< 1100		
CC1(c2ccc(NC(=O)OCc3ccc4c(c3)C(=O)N(C3CCC(=O)NC3=O)C4)cc2)COC1 (stereo not shown) [Compound 62]	< 1700	500 to 1100	
O=C1CCC(N2Cc3ccc(COC(=O)Nc4ccc5c(c4)CC(F)(F)O5)cc3C2=O)C(=O)N1 (stereo not shown) [Compound 113]			IC50 [3]: < 1100 nM
COc1cc(Cl)ccc1NC(=O)OCc1ccc2c(c1)C(=O)N(C1CCC(=O)NC1=O)C2 (stereo not shown) [Compound 38]	< 1700	500 to 1100	
O=C1CCC(N2Cc3ccc(COC(=O)Nc4cc(Cl)cc(OC5CCNC5)c4)cc3C2=O)C(=O)N1 (stereo not shown) [Compound 20]	< 1700	1100 to 1700	
O=C1CCC(N2Cc3ccc(COC(=O)Nc4cc(OC(F)(F)F)ccn4)cc3C2=O)C(=O)N1 (stereo not shown) [Compound 59]	< 1100		
COc1ccc(Cl)cc1NC(=O)OCc1ccc2c(c1)C(=O)N(C1CCC(=O)NC1=O)C2 (stereo not shown) [Compound 14]	< 1700	1100 to 1700	
O=C1CCC(N2Cc3ccc(COC(=O)NC4CCN(c5ccccn5)CC4)cc3C2=O)C(=O)N1 (stereo not shown) [Compound 35]	< 1100		
O=C1CCC(N2Cc3ccc(COC(=O)Nc4ccc5c(c4)CCC5)cc3C2=O)C(=O)N1 (stereo not shown) [Compound 56]	< 1700	1100 to 1700	
Cc1ccc(NC(=O)OCc2ccc3c(c2)C(=O)N(C2CCC(=O)NC2=O)C3)cc1OC(F)F (stereo not shown) [Compound 24]	< 1700	500 to 1100	

The next lines start with results.

IC50 [1] [nM]	IC50 [2] [nM]	Compound	other results
< 1700	500 to 1100	Cc1ncc(NC(=O)OCc2ccc3c(c2)C(=O)N(C2CCC(=O)NC2=O)C3)cc1OC(F)(F)F (stereo not shown) [Compound 91]	
< 1100	500 to 1100	Cc1cc(C)c(NC(=O)OCc2ccc3c(c2)C(=O)N(C2CCC(=O)NC2=O)C3)cc1Cl (stereo not shown) [Compound 123, (2-(2,6-dioxopiperidin-3-yl)-3-oxoisoindolin-5-yl) methyl (5-chloro-2,4-dimethylphenyl)carbamate]	
< 1100		O=C1CCC(N2Cc3ccc(COC(=O)NC45CC(c6ccccc6)(C4)C5)cc3C2=O)C(=O)N1 (stereo not shown) [Compound 126, (2-(2,6-dioxopiperidin-3-yl)-3-oxoisoindolin-5-yl)methyl (3-phenylbicyclo[1.1.1]pentan-1-yl carbamate]	
< 1100		CC1CCCN1c1ccc(NC(=O)OCc2ccc3c(c2)C(=O)N(C2CCC(=O)NC2=O)C3)cn1 (stereo not shown) [Compound 74]	
< 1700	500 to 1100	O=C1CCC(N2Cc3ccc(COC(=O)NCc4ccccc4)cc3C2=O)C(=O)N1 (stereo not shown) [Compound 98]	
< 1700	500 to 1100	O=C1CCC(N2Cc3ccc(COC(=O)Nc4ccc5c(c4)CCCO5)cc3C2=O)C(=O)N1 (stereo not shown) [Compound 67]	
< 1700	1100 to 1700	Cc1cc(Cl)cc(NC(=O)OCc2ccc3c(c2)C(=O)N(C2CCC(=O)NC2=O)C3)c1 (stereo not shown) [Compound 144, (2-(2,6-dioxopiperidin-3-yl)-3-oxoisoindolin-5-yl)methyl (3-chloro-5-methylphenyl)carbamate]	
< 1100	500 to 1100	CCc1nscc1NC(=O)OCc1ccc2c(c1)C(=O)N(C1CCC(=O)NC1=O)C2 (stereo not shown) [Compound 147]	
< 1100		C[C@@H]1CCCN1c1ccc(NC(=O)OCc2ccc3c(c2)C(=O)N(C2CCC(=O)NC2=O)C3)cn1 (stereo partly drawn) [Compound 157, (2-(2,6-dioxopiperidin-3-yl)-3-oxoisoindolin-5-yl)methyl (6-((R)-2-methylpyrrolidin-1-yl)pyridin-3-yl)carbamate]	
< 1700	500 to 1100	CN(C)C1CN(c2ccc(NC(=O)OCc3ccc4c(c3)C(=O)N(C3CCC(=O)NC3=O)C4)cn2)C1 (stereo not shown) [Compound 89]	
< 1100		O=C1CCC(N2Cc3ccc(COC(=O)Nc4ccc(N5CCCC(F)(F)C5)nc4)cc3C2=O)C(=O)N1 (stereo not shown) [Compound 73]	
< 1100		Cc1cc(C)c(F)c(NC(=O)OCc2ccc3c(c2)C(=O)N(C2CCC(=O)NC2=O)C3)c1 (stereo not shown) [Compound 122, (2-(2,6-dioxopiperidin-3-yl)-3-oxoisoindolin-5-yl)methyl (2-fluoro-3,5-dimethylphenyl)carbamate]	
< 1700	500 to 1100	CC1CCCCN1c1ccc(NC(=O)OCc2ccc3c(c2)C(=O)N(C2CCC(=O)NC2=O)C3)cn1 (stereo not shown) [Compound 77]	
< 1100		O=C1CCC(N2Cc3ccc(COC(=O)Nc4ccc5c(c4)CCO5)cc3C2=O)C(=O)N1 (stereo not shown) [Compound 66]	
< 1700	1100 to 1700	Cc1cc(F)cc(NC(=O)OCc2ccc3c(c2)C(=O)N(C2CCC(=O)NC2=O)C3)c1 (stereo not shown) [Compound 146, (2-(2,6-dioxopiperidin-3-yl)-3-oxoisoindolin-5-yl)methyl (3-fluoro-5-methylphenyl) carbamate]	
< 1700	500 to 1100	O=C1CCC(N2Cc3ccc(COC(=O)Nc4cnc(N5CCCCC5)c(F)c4)cc3C2=O)C(=O)N1 (stereo not shown) [Compound 72]	
< 1100		O=C1CCC(N2Cc3ccc(COC(=O)Nc4ccc(-c5ccccc5F)nc4)cc3C2=O)C(=O)N1 (stereo not shown) [Compound 84]	
< 1700	500 to 1100	CC1(C)COc2cc(NC(=O)OCc3ccc4c(c3)C(=O)N(C3CCC(=O)NC3=O)C4)ccc21 (stereo not shown) [Compound 83]	
< 1700	500 to 1100	Cc1ccccc1-c1ccc(NC(=O)OCc2ccc3c(c2)C(=O)N(C2CCC(=O)NC2=O)C3)cn1 (stereo not shown) [Compound 86]	
< 1100		O=C1CCC(N2Cc3ccc(COC(=O)Nc4ccc(N5CC6CCC(C5)O6)nc4)cc3C2=O)C(=O)N1 (stereo not shown) [Compound 65]	
< 1700	1100 to 1700	Cc1c(F)cc(NC(=O)OCc2ccc3c(c2)C(=O)N(C2CCC(=O)NC2=O)C3)cc1F (stereo not shown) [Compound 127, (2-(2,6-dioxopiperidin-3-yl)-3-oxoisoindolin-5-yl)methyl (3,5-difluoro-4-methylphenyl)carbamate]	
< 1100		O=C1CCC(N2Cc3ccc(COC(=O)Nc4ccc(C5CC5)nc4)cc3C2=O)C(=O)N1 (stereo not shown) [Compound 80]	
< 1100		Cc1cc(NC(=O)OCc2ccc3c(c2)C(=O)N(C2CCC(=O)NC2=O)C3)cc(C)c1F (stereo not shown) [Compound 124, (2-(2,6-dioxopiperidin-3-yl)-3-oxoisoindolin-5-yl)methyl (4-fluoro-3,5-dimethylphenyl)carbamate]	
< 1700	500 to 1100	O=C1CCC(N2Cc3ccc(COC(=O)Nc4ccc5c(c4)OCCC5)cc3C2=O)C(=O)N1 (stereo not shown) [Compound 92]	
